Assay [1] addresses TtgR (Pseudomonas putida, UniProt Q9AIU0, R176G). Briefly: biochemical.
Assay [2] concerns the target T1, TtgR (Pseudomonas putida, UniProt Q9AIU0).
T1 construct: full-length, ttgR in pET29a+, expressed in E. coli B834(DE3); heparin and gel filtration purification; homodimer; residues about 10-210 seen in crystals
Briefly: isothermal titration calorimetry. It counts as binding. A general note: ITC needs no label: the signal is the heat of the interaction.

Assay [3] deals with T1, TtgR. Briefly: X-ray crystal structure of complex. As to conditions: general binding site, 2 per dimer; co-crystal, 2.4 Å.

The term Kd denotes the concentration at which binding is half-saturated. Low values mean higher affinity, high ones lower affinity.

On to `O=C(CCc1ccc(O)cc1)c1c(O)cc(O)cc1O` [phloretin], for which the Kd was 9.2 ± 0.5 µM in assay [1] and 0.05 ± 0.01 µM in assay [2].

`O=c1c(O)c(-c2ccc(O)c(O)c2)oc2cc(O)cc(O)c12` [quercetin]: the “X-ray crystal structure of complex” value in assay [3] was “Both effectors bind at similar locations to the hydrophobic binding site as tetracycline and chloramphenicol”.

The record behind these values is paper PMC2756574, “Crystal Structures of Multidrug Binding Protein TtgR in Complex with Antibiotics and Plant Antimicrobials” (Journal of Molecular Biology, 2007).
